# Measurements reported in patent publication US7803757B2, “Peptides based on the sequence of human lactoferrin and their use” (PharmaSurgics in Sweden AB, priority 1998, dated 2010).
# Peptide text beside a SMILES is read from it. * marks the point of attachment. Acm = CC(=O)NC*
# Experiments:
# Assay type in all cases: cell-based
# C. albicans [1] = test: microbe, parasite or virus in culture
# Method: (§1) In the examples, the minimal microbicidal concentrations (MMC) and minimal inhibitory concentrations (MIC) were determined as follows, unless otherwise specified in the examples. Bacterial or fungal strains were cultured in BHI medium over night at 37° C. A volume of the culture was transferred to a new tube with BHI and incubated for two more hours. Thereafter the cells were spun down and the pellet was suspended in BHI medium diluted 1/100 (1% BHI). The concentration of bacterial or fungal cells was spectrophotometrically determined at 650 nm. The microbial concentrations were also determined by viable counts. Peptides serially diluted in 1% BHI by twofold or tenfold steps were added in triplicate to the wells of a microtiterplate (200 μl per well). The bacterial or fungal cell solutions were added in 10 μl volumes to give a final concentration of approximately 1-5×10^5 cells per ml in the well. The microplate was incubated at 37° C. in a humid chamber for two hours. Thereafter 5 μl was taken from each well and added as a drop onto a blood agar plate and incubated over night at 37° C. The microplate was incubated for another 20 hours at 37° C. and thereafter analysed spectrophotometrically at 650 nm in a microplate reader (Emax, Molecular Devices, USA). The concentration of peptide causing a 99% reduction of the inoculum after 2 hours of incubation was defined as the MMC99%. The MIC value was defined as the concentration giving no increase in the absorbance value above the background level after 20 hours of incubation.
# Also in this example one of the peptides according to the invention—this time the peptide with SEQ. ID. NO. 4, was compared to a conventional fungicide, amphotericin. The antifungal activity against C. albicans was studied. Twofold serial dilutions with a starting concentration of 20 μg/ml were used. BHI diluted 1/100 was used as growth medium.
# E. coli O6K5 = test: bactericidal activity, incubation with E. coli O6K5 (Example 3, exp. II); conditions: Exp. II: 100% killing, E. coli O6K5, 1/100 BHI, 2 hours
# Method: Human lactoferrin (hLF), peptide 3, and peptide 4, respectively, were incubated with two different strains of E. coli, E. coli O14 (experiment I) and O6K5 (experiment II), in diluted growth medium ( 1/100 BHI—brain heart infusion) for 2 hours. The peptides were also incubated with E. coli O14 in 0.05 mM KCl (pH 7) without any growth medium (experiment III). Different concentrations of the peptides were tested.
# After the incubation, samples were taken for bacterial plating. Serial dilutions of five- and fourfold steps were used in experiments I and II, respectively, and of twofold steps in experiment III.
# The concentrations of the different peptides required for killing 100% (experiments I and II) or 90% (experiment III) of the bacteria are given in table 2.
# C. albicans [2] = test: fungicidal activity MMC99%, C. albicans (Example 27); conditions: BHI diluted 1/100 (Table 23)
# Method: as §1
# In this example the fungicidal activity of three of the peptides according to the invention was studied, and tested against three different fungi. The fungi were incubated in BHI medium diluted 1/100. The concentration of each peptide needed to kill 99% of the fungi (MMC99%) was determined.
# multiresistant S. aureus = test: bactericidal activity, multiresistant S. aureus (Example 18); conditions: multiresistant S. aureus 5.0×10^5 per ml
# Method: In this example the bactericidal activity of two of the peptides according to the invention was studied in a test with a multiresistant S. aureus. A bacterial solution with a concentration of 5.0×10^5 S. aureus bacterial per ml was used. The concentration of each peptide needed to kill 99% of the bacteria (MMC99%) was determined after 2 hours and after 24 hours of incubation at 37° C.
# C. albicans [3] = test: concentration for killing of 99% of C. albicans at different pH (Example 13, FIG. 2); conditions: FIG. 2, different pH
# Description: In this example the concentrations needed of three peptides according to the invention for killing of 99% of C. albicans at different pH was compared to a reference peptide. The peptides according to the invention were peptide 2 (linear), peptide 3 (cyclic), peptide 4 (linear), peptide 5 (cyclic) and peptide 7 (lactam bridged), all capped. The reference peptides used were an uncapped cyclic form and an uncapped linear form of a Morinaga peptide, Morinaga 24 and 25. The results are illustrated in FIG. 2.
# C. albicans [4] = test: microbicidal activity MMC99%, C. albicans (Example 28); conditions: C. albicans (Table 24)
# Method in brief: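 Peptides serially diluted in 1% BHI were incubated with E. coli O6K5 or C. albicans (~1-5×10^5 cells/ml) for 2 h at 37 °C, then spotted on blood agar overnight. MMC99% was the peptide concentration causing 99% reduction of the inoculum.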
# E. coli O14 = test: bactericidal activity against E. coli O14, comparison with EP-A-0 629 347 peptides (Example 7); conditions: E. coli O14, II: serial dilutions of twofold steps
# Method: In this example an in vitro test was performed to compare the bactericidal and fungicidal activity of the peptides according to the invention with peptides described in EP-A-0 629 347. The peptide according to the invention used was peptide 4, and the peptides according to EP-A-0 629 347 called Morinaga 10, Morinaga 11, Morinaga 12, and Morinaga 13.
# The peptides were incubated with E. coli O14 and Candida albicans. Two concentrations of C. albicans yeast cells were tested, 5·10^6 and 5·10^3 per ml. Different concentrations of the peptides were tested.
# After the incubation, samples were taken for bacterial plating. Serial dilutions of tenfold steps were used in the experiments marked with I in table 5 and of twofold steps in the experiments marked with II.
# Candida albicans = test: fungicidal activity against Candida albicans strains (Example 4)
# Method: (§2) In this example the fungicidal activity of the peptides according to the invention was tested and compared to the fungicidal activity of human lactoferrin. Different concentrations of hLF, peptide 3 and peptide 4 were incubated with different strains of Candida albicans and Candida krusei during 1-2 hours at 37° C. in 0.05 mM KCl at pH 7.0 at two different occasions—experiment I and II, respectively. After incubation samples were taken for plating on Saboroud plates.
# Candida krusei = test: fungicidal activity against Candida krusei strains (Example 4); conditions: Exp. I
# Method: as §2
# C. neoformans = test: fungicidal activity MMC99%, C. neoformans (Example 27); conditions: BHI diluted 1/100 (Table 23)
# Method: as §1, with “The bacterial or fungal cell solutions were added in 10 μl volumes to give a final concentration of approximately 1-5×10^5 cells per ml in the well. The microplate was incubated at 37° C. in a humid chamber for two hours. Thereafter 5 μl was taken from each well and added as a drop onto a blood agar plate and incubated over night at 37° C.” left out, “The concentration of peptide causing a 99% reduction of the inoculum after 2 hours of incubation was defined as the MMC99%.” left out
# In this example the fungicidal activity of three of the peptides according to the invention was studied, and tested against three different fungi. […] The concentration of each peptide needed to kill 99% of the fungi (MMC99%) was determined.
smiles,measurement,setting,value
CC[C@H](C)[C@H](NC(=O)[C@H](CSCNC(C)=O)NC(=O)[C@H](CO)NC(=O)[C@@H](NC(=O)[C@@H]1CCCN1C(=O)[C@@H]1CCCN1C(=O)CNC(=O)[C@H](CCCNC(=N)N)NC(=O)[C@@H](NC(=O)[C@H](CCCCN)NC(=O)[C@H](CCCNC(=N)N)NC(=O)[C@H](CCSC)NC(=O)[C@H](CC(N)=O)NC(=O)[C@H](CCCNC(=N)N)NC(=O)[C@H](CCC(N)=O)NC(=O)[C@H](Cc1c[nH]c2ccccc12)NC(=O)[C@H](CCC(N)=O)NC(=O)[C@H](Cc1ccccc1)NC(=O)[C@H](CSCNC(C)=O)NC(=O)[C@H](CCCCN)NC(=O)[C@@H](NC(C)=O)[C@@H](C)O)C(C)C)C(C)C)C(=O)N[C@@H](CCCCN)C(=O)N[C@@H](CCCNC(=N)N)C(N)=O [Peptide 4] (Ac-TKC(Acm)FQWQRNMRKVRGPPVSC(Acm)IKR-NH2),MIC,C. albicans [1],5.0 µg/mL
same,MMC99%,"C. albicans [1]; C. albicans, BHI diluted 1/100, twofold dilutions from 20 μg/ml",5.0 µg/mL
same,Concentration of agent for 100%/90% killing,E. coli O6K5,≦7.8 μg/ml
same,MMC99%,C. albicans [2],6.3
same,MMC99%,multiresistant S. aureus; 2 hours at 37° C.,5.0 µg/mL
same,MMC99%,multiresistant S. aureus; 24 hours at 37° C.,≦0.32 μg/ml
same,"concentration needed for killing of 99% of C. albicans, compared with the capped cyclic peptides (in words)",C. albicans [3],better effects than the capped cyclic peptides
same,MMC99%,C. albicans [4],5
same,Concentration of agent for 100% killing,E. coli O14,12 µg/mL
same,ratio hLF/pep. (concentration for 99% killing),"Candida albicans; Exp. I, C. albicans ATCC 64549",>40
same,Concentration of agent for 99% killing,"Candida albicans; Exp. I, C. albicans ATCC 64549, 0.05 mM KCl pH 7.0, 1-2 hours 37° C.",1.25 µg/mL
same,ratio hLF/pep. (concentration for 99% killing),"Candida albicans; Exp. I, C. albicans CCUG 90028",>40
same,Concentration of agent for 99% killing,"Candida albicans; Exp. I, C. albicans CCUG 90028, 0.05 mM KCl pH 7.0",1.25 µg/mL
same,ratio hLF/pep. (concentration for 99% killing),"Candida albicans; Exp. II, C. albicans ATCC 64549",>133
same,Concentration of agent for 99% killing,"Candida albicans; Exp. II, C. albicans ATCC 64549, 0.05 mM KCl pH 7.0",1.5 µg/mL
same,ratio hLF/pep. (concentration for 99% killing),"Candida albicans; Exp. II, C. albicans CCUG 599",>133
same,Concentration of agent for 99% killing,"Candida albicans; Exp. II, C. albicans CCUG 599, 0.05 mM KCl pH 7.0",1.5 µg/mL
same,ratio hLF/pep. (concentration for 99% killing),"Candida albicans; Exp. II, C. albicans CCUG 1759",>133
same,Concentration of agent for 99% killing,"Candida albicans; Exp. II, C. albicans CCUG 1759, 0.05 mM KCl pH 7.0",1.5 µg/mL
same,ratio hLF/pep. (concentration for 99% killing),Candida krusei; C. krusei CCUG 969,10
same,Concentration of agent for 99% killing,"Candida krusei; C. krusei CCUG 969, 0.05 mM KCl pH 7.0",2.5 µg/mL
same,ratio hLF/pep. (concentration for 99% killing),Candida krusei; C. krusei CCUG 35849,10
same,Concentration of agent for 99% killing,"Candida krusei; C. krusei CCUG 35849, 0.05 mM KCl pH 7.0",1.25 µg/mL
same,MMC99%,C. neoformans,≦3.1
